From publication PMC11303535 (Nature Communications, 2024)

Experiments:
hTRPV1 S512F = hTRPV1 S512F (Homo sapiens, UniProt Q8NER1, S512F); assay: FLIPR calcium influx assay, hTRPV1 S512F mutant; assay type: cell-based; settings: also unresponsive to pH
hTRPV1 = hTRPV1 (Homo sapiens, UniProt Q8NER1); assay: FLIPR calcium influx assay, hTRPV1 WT in HEK293T; assay type: cell-based; settings: 3.33 µM capsaicin
TRPV1 = settings: CHL at concentrations up to 250 μM; cited from earlier work

Chain of hTRPV1 S512F (Q8NER1 whole entry S512F): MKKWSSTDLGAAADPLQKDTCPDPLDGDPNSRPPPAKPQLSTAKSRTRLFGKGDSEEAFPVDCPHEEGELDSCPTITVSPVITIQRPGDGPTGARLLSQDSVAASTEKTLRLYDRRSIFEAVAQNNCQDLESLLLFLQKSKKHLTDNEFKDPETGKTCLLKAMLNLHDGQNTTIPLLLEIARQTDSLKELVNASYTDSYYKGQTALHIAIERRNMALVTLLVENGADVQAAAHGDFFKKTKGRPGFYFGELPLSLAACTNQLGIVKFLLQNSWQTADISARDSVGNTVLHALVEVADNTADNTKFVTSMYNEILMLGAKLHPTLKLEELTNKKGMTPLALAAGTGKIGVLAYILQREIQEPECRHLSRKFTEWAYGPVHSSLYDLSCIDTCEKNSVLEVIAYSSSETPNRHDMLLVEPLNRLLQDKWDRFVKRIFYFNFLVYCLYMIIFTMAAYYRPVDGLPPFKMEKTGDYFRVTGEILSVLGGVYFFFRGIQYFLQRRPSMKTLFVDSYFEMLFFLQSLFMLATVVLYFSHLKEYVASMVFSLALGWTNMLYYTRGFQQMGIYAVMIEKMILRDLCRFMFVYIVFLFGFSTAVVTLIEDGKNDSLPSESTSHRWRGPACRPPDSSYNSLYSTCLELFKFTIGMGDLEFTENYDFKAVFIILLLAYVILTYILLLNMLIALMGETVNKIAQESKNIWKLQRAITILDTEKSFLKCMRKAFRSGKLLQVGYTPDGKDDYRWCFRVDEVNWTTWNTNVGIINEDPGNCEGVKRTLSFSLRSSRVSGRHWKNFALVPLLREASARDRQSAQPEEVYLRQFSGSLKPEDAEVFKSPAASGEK
Chain of hTRPV1 (Q8NER1 whole entry): as the sequence (Q8NER1 whole entry S512F) above, with F512S counted along it

Structure (SMILES) | response of mutant to capsaicin (hTRPV1 S512F) | activation of hTRPV1 by capsaicin (hTRPV1) | inhibition of TRPV1 currents evoked by 2-APB (TRPV1)
COc1cc(CNC(=O)CCCC/C=C/C(C)C)ccc1O [capsaicin] | unresponsive | 80–90% | 
CC(C)CCC[C@@H](C)[C@H]1CC[C@H]2[C@@H]3CC=C4C[C@@H](O)CC[C@]4(C)[C@H]3CC[C@]12C [CHL, cholesterol] |  |  | not inhibited
